Measurements reported in US7579469B2, “Glucocorticoid mimetics, methods of making them, pharmaceutical compositions, and uses thereof” (Boehringer Ingelheim Pharmaceuticals, Inc., priority 2003, dated 2009).

Columns and labels:
[1] = system: Osteocalcin Production from Osteoblast Cell Line MG-63; experiment: Inhibition of osteocalcin production from osteoblast cell line MG-63; format: cell-based, human; conditions: MG-63 cells, Vitamin D 10 nM, 48 hours, osteocalcin ELISA
Protocol: Representative compounds of the invention have been tested and have shown activity as modulators of the glucocorticoid receptor function in one or more of the above assays. […] 7. Inhibition of Osteocalcin Production from Osteoblast Cell Line MG-63
Human osteosarcoma MG-63 cells (ATCC, Cat. No. CRL-1427) are plated on 96 well plates at 20,000 cells per well the day before use in 200 μL media of 99% D-MEM/F-12 (Gibco-Invitrogen, Cat. No. 11039-021), supplemented with 1% penicillin and streptomycin (Gibco-Invitrogen, Cat. No. 15140-122), 10 μg/mL Vitamin C (Sigma, Cat. No. A4544), and 1% charcoal filtered Fetal Bovine Serum (HyClone, Cat. No. SH30068.02). The next day, wells are replaced with fresh media. Cells are treated with Vitamin D (Sigma, Cat. No. D1530) to a final concentration of 10 nM, and with the test compounds in concentrations of 10^−6 M to 10^−9 M, in a total volume of 200 μL per well. Samples are done in duplicates. […] Positive control wells receive Vitamin D only, without compounds, and represent maximum (100%) amount of osteocalcin production. Plates are incubated at 37° C. incubator for 48 hours and supernatants are harvested at the end of incubation. Amounts of osteocalcin in the supernatants are determined by the Glype osteocalcin ELISA kit (Zymed, Cat. No. 99-0054) according to manufacture's protocol. Inhibition of osteocalcin by test compounds is expressed in percentage relative to positive controls. IC50 values of the test compounds are derived by non-lineal curve fitting.

[2] = molecular target: T1, human glucocorticoid receptor (GR) complex (Homo sapiens, UniProt P04150); experiment: Glucocorticoid receptor competitive binding assay (fluorescence polarization); conditions: competition with TAMRA-labeled dexamethasone
T1 construct: made in house; host or cells: insect expression system (baculovirus lysate)
T1 sequence (P04150 1-777): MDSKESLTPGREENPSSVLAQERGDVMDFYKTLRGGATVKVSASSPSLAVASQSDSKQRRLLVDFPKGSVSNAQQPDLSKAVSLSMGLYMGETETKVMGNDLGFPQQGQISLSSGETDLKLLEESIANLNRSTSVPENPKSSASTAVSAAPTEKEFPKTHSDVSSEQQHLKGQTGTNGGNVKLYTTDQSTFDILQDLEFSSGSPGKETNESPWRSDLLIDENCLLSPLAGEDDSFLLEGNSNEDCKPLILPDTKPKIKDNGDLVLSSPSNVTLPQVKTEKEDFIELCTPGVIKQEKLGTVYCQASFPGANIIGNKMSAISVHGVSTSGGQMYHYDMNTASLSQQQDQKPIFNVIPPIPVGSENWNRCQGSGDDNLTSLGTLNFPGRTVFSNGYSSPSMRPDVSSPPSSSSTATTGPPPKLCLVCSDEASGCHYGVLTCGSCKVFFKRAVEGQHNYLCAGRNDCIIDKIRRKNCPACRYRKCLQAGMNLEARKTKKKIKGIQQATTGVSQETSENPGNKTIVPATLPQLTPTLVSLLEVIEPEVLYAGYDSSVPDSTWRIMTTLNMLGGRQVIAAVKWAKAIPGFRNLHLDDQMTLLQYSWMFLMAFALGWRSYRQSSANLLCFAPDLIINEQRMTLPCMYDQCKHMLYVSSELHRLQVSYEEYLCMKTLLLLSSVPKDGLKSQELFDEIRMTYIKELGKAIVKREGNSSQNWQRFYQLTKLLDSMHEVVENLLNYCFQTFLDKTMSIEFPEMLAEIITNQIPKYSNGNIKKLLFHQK
Procedure, shortened: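 Fluorescence polarization competition against TAMRA-labelled dexamethasone (50 μL of 15 nM added) for human GR complex from baculovirus insect-cell lysate, diluted 1:170, in TES/KCl/molybdate buffer, pH 7.4.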

| activity in the GR binding assay [2] | melting point [°C] | SMILES | inhibit the vitamin D stimulated production of osteocalcin [1] |
| --- | --- | --- | --- |
| potent activity | – | CC(C)(CC(O)(Cn1ccc(=O)c2ccccc21)C(F)(F)F)c1cc(S(C)(=O)=O)cc2c1OCC2 (centres unmarked) [1-[2-Hydroxy-4-(5-methanesulfonyl-2,3-dihydrobenzofuran-7-yl)-4-methyl-2-trifluoromethylpentyl]-1H-quinolin-4-one] | inhibit |
| potent activity | – | CC(C)(CC(O)(Cn1ccc(=O)c2ccccc21)C(F)(F)F)c1cc(F)ccc1O (centres unmarked) [1-[4-(5-Fluoro-2-hydroxyphenyl)-2-hydroxy-4-methyl-2-trifluoromethylpentyl]-1H-quinolin-4-one] | inhibit |
| potent activity | – | CC(C)(CC(O)(Cn1ccc(=O)c2ccc(F)cc21)C(F)(F)F)c1cc(F)ccc1O (centres unmarked) [7-Fluoro-1-[4-(5-fluoro-2-hydroxyphenyl)-2-hydroxy-4-methyl-2-trifluoromethylpentyl]-1H-quinolin-4-one] | inhibit |
| – | > 225 | COc1ccc(F)cc1C(C)(C)CC(O)(Cn1cc(C)c(=O)c2ccccc21)C(F)(F)F (centres unmarked) [Example 26, 1-[4-(5-fluoro-2-methoxyphenyl)-2-hydroxy-4-methyl-2-trifluoromethylpentyl]-3-methyl-1H-quinolin-4-one] | – |
| – | 195 to 196 | CCOc1ccc(F)cc1C(C)(C)CC(O)(Cn1ccc(=O)c2ccccc21)C(F)(F)F (centres unmarked) [Example 27, 1-[4-(2-ethoxy-5-fluorophenyl)-2-hydroxy-4-methyl-2-trifluoromethylpentyl]-1H-quinolin-4-one] | – |

Further lines, the compound ahead of its results:

| SMILES | activity in the GR binding assay [2] | melting point [°C] | inhibit the vitamin D stimulated production of osteocalcin [1] |
| --- | --- | --- | --- |
| CC(C)(CC(O)(Cn1ccc(=O)c2ncccc21)C(F)(F)F)c1cc(F)ccc1O (centres unmarked) | – | – | inhibit |
| CC(C)(CC(O)(Cn1ccc(=O)c2ccccc21)C(F)(F)F)c1cccc(-c2ccccc2)c1 (centres unmarked) [1-(4-Biphenyl-3-yl-2-hydroxy-4-methyl-2-trifluoromethylpentyl)-1H-quinolin-4-one] | – | – | inhibit |
| CC(C)(CC(O)(Cn1ccc(=O)c2ccccc21)C(F)(F)F)c1cc(Br)cc2c1OCC2 (centres unmarked) [1-[4-(5-Bromo-2,3-dihydrobenzofuran-7-yl)-2-hydroxy-4-methyl-2-trifluoromethylpentyl]-1H-quinolin-4-one] | potent activity | – | inhibit |
| COc1ccc(F)cc1C(C)(C)CC(O)(Cn1[nH]c(=O)c2ccccc21)C(F)(F)F (centres unmarked) [Example 23, 1-[4-(5-fluoro-2-methoxyphenyl)-2-hydroxy-4-methyl-2-trifluoromethylpentyl]-1,2-dihydroindazol-3-one] | – | 141 to 144 | – |
| CC(C)(CC(O)(Cn1ccc(=O)c2ccccc21)C(F)(F)F)c1cc(F)ccc1OC(F)F (centres unmarked) [Example 28, 1-[4-(2-difluoromethoxy-5-fluorophenyl)-2-hydroxy-4-methyl-2-trifluoromethylpentyl]-1H-quinolin-4-one] | – | 150 to 155 | – |
